Data reported in patent US20020086278A1, “CHROMOGENIC MEDIA CONTAINING BLOOD OR HEMIN” (priority 1999, published 2002).
Read-outs that look alike come from different tables or passages of the source.

Assays:
[1] = Color contrast of chromogen on blood plate
[2] = test system: 55 strains; assay: Example 3: color, hemolytic activity and growth over all 55 strains; assay type: cell-based; conditions: chromogenic TSA II
From the text: Steers, E. et al., Antibiot.

[3] = test system: Entercoccus faecalis (enfa); assay: Example 3: colony color on chromogenic TSA II with 5% sheep blood (chromogen in medium); assay type: cell-based
[4] = test system: E. coli (non-O157) (esco); assay type: cell-based
[5] = test system: Streptococcus agalactiae (stag); assay: Example 3: colony color on chromogenic TSA II with 5% sheep blood (chromogen in medium); assay type: cell-based
[6] = test system: milu 9341; assay: as above; assay type: cell-based; conditions: CO2, 21 h
[7] = test system: cakr 34135; assay: as above; assay type: cell-based; conditions: CO2, 21 h
[8] = test system: Klebsiella pneumoniae (klpn); assay: as above; assay type: cell-based
[9] = test system: Citrobacter freundii (cifr); assay: as above; assay type: cell-based; conditions: for Colony Color: CO2, 21 h
[10] = test system: Candida albicans (caal); assay: as above; assay type: cell-based; conditions: for Colony Color: caal 10231, 24 h
[11] = test system: Staphylococcus Coag Neg (step); assay: as above; assay type: cell-based; conditions: for Colony Color: 21 h
[12] = test system: Staphylococcus aureus (stau); assay: as above; assay type: cell-based
[13] = test system: Branhamella catarrhalis (brca); assay: as above; assay type: cell-based; conditions: for Colony Color: CO2, 21 h
[14] = test system: Pseudomonas aeruginosa (psae); assay: as above; assay type: cell-based; conditions: for Colony Color: CO2, 21 h
[15] = test system: S. milleri (stmi); assay: as above; assay type: cell-based; conditions: for Colony Color: stmi 6249, 21 h
[16] = test system: S. pneumoniae (stpn); assay: as above; assay type: cell-based
[17] = test system: S pyogenes (stpy); assay: as above; assay type: cell-based; conditions: for Colony Color: 21 h
[18] = test system: Aeromonas hydrophilia (aehy); assay: as above; assay type: cell-based; conditions: for Colony Color: CO2, 21 h
[19] = test system: E. faecium (enfu); assay: as above; assay type: cell-based; conditions: for Colony Color: enfu 49032, 21 h
[20] = test system: Serratia marcescens (sema); assay: as above; assay type: cell-based
[21] = test system: Salmonella spp. (sasp); assay type: cell-based; conditions: for Colony Color: CO2, 21 h
[22] = Precipitate of chromogen on pre-plated media; assay type: physicochemical; conditions: 50 μl DMSO solution on pre-plated media
Experimental: 50 μl of each chromogen solution was added to the surface of each of the following pre-plated media (one chromogen solution per plate):
The solution was dispersed using a spreader and allowed to dry 3-4 hours in a hood.

[23] = chromogenic TSA II with 5% Sheep Blood, 0.1 g/l, 6 strains tested
[24] = chromogenic TSA II with 5% Sheep Blood, 0.1 g/l, 3 strains tested
[25] = chromogenic TSA II with 5% Sheep Blood, 0.1 g/l, 2 strains tested
[26] = chromogenic TSA II with 5% Sheep Blood, 0.1 g/l, 5 strains tested
[27] = chromogenic TSA II with 5% Sheep Blood, 0.1 g/l, 1 strain tested

Compound: Oc1c[nH]c2cc(Cl)ccc12 [6-chloro-3-indoxyl]
- Absorption max (nm) [1]: 540 nm

Compound: Oc1c[nH]c2ccc(Br)c(Cl)c12 [5-Bromo-4-chloro-3-indoxyl]
- Absorption max (nm) [1]: 615 nm

Compound: Magenta-caprylate [M-Cap]
- Activity (color) for most organisms [2]: inactive
- Colony Color (Summary) [3, 23]: 0
- Colony Color ([3]; enfa 597, CO2, 21 h): 0
- Colony Color ([3]; enfa 597, air, 21 h): 0
- Colony Color ([3]; enfa 10741, CO2, 21 h): 0
- Colony Color ([3]; enfa 10741, air, 21 h): 0
- Colony Color ([3]; enfa 12953, CO2, 21 h): 0
- Colony Color ([3]; enfa 12953, air, 21 h): 0
- Colony Color ([3]; enfa 14506, CO2, 21 h): 0
- Colony Color ([3]; enfa 14506, air, 21 h): 0
- Colony Color ([3]; enfa 29212, CO2, 21 h): 0
- Colony Color ([3]; enfa 29212, CO2, 24 h): 0
- Colony Color ([3]; enfa 29212, air, 21 h): 0
- Colony Color ([3]; enfa 29212, air, 24 h): 0
- Colony Color (Summary) [4, 24]: 0
- Colony Color ([4]; esco 11775, CO2, 21 h): 0
- Colony Color ([4]; esco 25922, CO2, 24 h): 0
- Colony Color ([4]; esco 25922, air, 24 h): 0
- Colony Color ([4]; esco 33605, CO2, 21 h): 0
- Colony Color (Summary) [5, 24]: 0
- Colony Color ([5]; stag 4768, CO2, 21 h): 0
- Colony Color ([5]; stag 4768, air, 21 h): 0
- Colony Color ([5]; stag 12386, CO2, 21 h): 0
- Colony Color ([5]; stag 12386, CO2, 24 h): 0
- Colony Color ([5]; stag 12386, air, 24 h): 0
- Colony Color [6]: 0
- Colony Color [7]: 0
- Colony Color (Summary) [8, 24]: 0
- Colony Color ([8]; klpn 13883, CO2, 21 h): 0
- Colony Color ([8]; klpn 33495, CO2, 24 h): 0
- Colony Color ([8]; klpn 33495, air, 24 h): 0
- Colony Color ([8]; klpn 33606, CO2, 21 h): 0
- Colony Color (Summary) [9, 25]: 0
- Colony Color ([9]; cifr 8454): 0
- Colony Color ([9]; cifr 33128): 0
- Colony Color ([10]; CO2): 0
- Colony Color ([10]; air): 0
- Colony Color (Summary) [10, 25]: 0
- Colony Color (Summary) [11, 26]: 0
- Colony Color ([11]; step 12228, CO2): 0
- Colony Color ([11]; step 12228, air): 0
- Colony Color ([11]; step cdc1, CO2): 0
- Colony Color ([11]; step cdc1, air): 0
- Colony Color ([11]; step cdc2, CO2): 0
- Colony Color ([11]; step cdc2, air): 0
- Colony Color ([11]; step cdc3, CO2): 0
- Colony Color ([11]; step cdc3, air): 0
- Colony Color ([11]; step cdc4, CO2): 0
- Colony Color ([11]; step cdc4, air): 0
- Colony Color (Summary) [12, 26]: 0
- Colony Color ([12]; stau 1006, CO2, 21 h): 0
- Colony Color ([12]; stau 1007, CO2, 21 h): 0
- Colony Color ([12]; stau 1008, CO2, 21 h): 0
- Colony Color ([12]; stau 1009, CO2, 21 h): 0
- Colony Color ([12]; stau 25923, CO2, 24 h): 0
- Colony Color ([12]; stau 25923, air, 24 h): 0
- Colony Color ([13]; brca 25238): 0
- Colony Color ([13]; brca 25240): 0
- Colony Color (Summary) [13, 25]: 0
- Colony Color (Summary) [14, 24]: 0
- Colony Color ([14]; psae 9027): 0
- Colony Color ([14]; psae 15442): 0
- Colony Color ([14]; psae 33607): 0
- Colony Color (Summary) [15, 25]: 0
- Colony Color ([15]; CO2): 0
- Colony Color ([15]; air): 0
- Colony Color (Summary) [16, 23]: 0
- Colony Color ([16]; stpn 1259, CO2, 21 h): 0
- Colony Color ([16]; stpn 1260, CO2, 21 h): 0
- Colony Color ([16]; stpn 1331, CO2, 21 h): 0
- Colony Color ([16]; stpn 1628, CO2, 21 h): 0
- Colony Color ([16]; stpn 6303, CO2, 24 h): 0
- Colony Color ([16]; stpn 6303, air, 24 h): 0
- Colony Color ([16]; stpn 6305, CO2, 24 h): 0
- Colony Color ([16]; stpn 6305, air, 24 h): 0
- Colony Color (Summary) [17, 23]: 0
- Colony Color ([17]; stpy 1027, CO2): 0
- Colony Color ([17]; stpy 1028, CO2): 0
- Colony Color ([17]; stpy 1029, CO2): 0
- Colony Color ([17]; stpy 1030, CO2): 0
- Colony Color ([17]; stpy 19615, CO2): 0
- Colony Color ([17]; stpy 19615, air): 0
- Colony Color ([17]; stpy 49117, CO2): 0
- Colony Color ([17]; stpy 49117, air): 0
- Colony Color ([17]; stpy 51339, CO2): 0
- Colony Color ([17]; stpy 51339, air): 0
- Colony Color ([18]; aehy 7965): 0
- Colony Color ([18]; aehy 7966): 0
- Colony Color ([18]; aehy 49847): 0
- Colony Color (Summary) [18, 24]: 0
- Colony Color (Summary) [19, 27]: 0
- Colony Color ([19]; CO2): 0
- Colony Color ([19]; air): 0
- Colony Color (Summary) [20, 27]: 0
- Colony Color ([20]; sema 13880, CO2, 21 h): 0
- Colony Color (Summary) [21, 25]: 0
- Colony Color ([21]; saty 19430): 0
- Colony Color ([21]; satym 14028): 0

Compound: O=C([O-])[C@H]1O[C@@H](Oc2c[nH]c3ccc(Br)c(Cl)c23)[C@H](O)[C@@H](O)[C@@H]1O.[Na+] [X-Glucuro(s), 5-Br-4-Cl-3-indolyl-β-D-glucuronide (sodium salt)]
- Precipitate when spread / placed on the plated media [22]: remained clear
